Laboratory results published in patent US5250426A, “Molecules with antibody combining sites that induce asymmetry” (The Scripps Research Institute, priority 1991, dated 1993).

Tested on: monoclonal antibodies induced by Compound A
Test: Inhibition of the antibody-catalyzed hydrolysis of Compound 1 by free Compound A
Format: biochemical, mice
Settings: all three monoclonal antibodies
Description: The production of Compound 2 by a monoclonal antibody composition of this invention was assayed at a concentration of 20 μM monoclonal antibody and 1.5 mM Compound 1 in 10 percent dimethylsulfoxide (DMSO)/ATE buffer (0.52M ACES, 0.52M Tris, 0.01M ethanolamine pH 9.0) at 25° C. The initial rate of hydrolysis of Compound 1 by the monoclonal antibodies produced by three hybridomas followed Michaelis-Menten kinetics (Table 1 hereinafter).

CC1(OP(=O)(O)Cc2ccc(CCN)cc2)CCCCC1 [Compound A]
inhibition of the hydrolytic reaction by addition of free Compound A: extensive inhibition
